Assay results from patent publication US9278947B2, “Serotonin reuptake inhibitors as drugs having peripheral-system-restricted activity” (priority 2006, dated 2016).
Read-outs that look alike come from different tables or passages of the source. Marks after values point to notes of the source that are not given here.

Assays:
mice [1] = experiment: Tail bleeding time in chronically treated mice; format: in vivo; settings: for Mean (n = 4) of mean bleeding time: mean over experiments (different doses)
Protocol: The anti-thrombotic effects of a drug can be evaluated in mice through a bleeding time experiment. Mice were treated by the tested drugs for two weeks, then anesthetized and placed on a warming pad before a segment of their tail was amputated. The tail was immersed in 0.9% isotonic saline at 37° C., and the time required for the stream of blood to stop was defined as the bleeding time. Different cuts and drug doses were tested. Control mice were administered either DDW (p.o) or saline (i.p). In some experiments (Nos. 5 and 6), half of the mice were administered DDW and half saline.

[2] = reported in reference [1]; cited from earlier work
mice [3] = experiment: Collagen-epinephrine induced acute pulmonary thromboembolism in mice; format: in vivo; settings: for death or paralysis after collagen-epinephrine injection versus control group: chronic treatment: aspirin 70 mg/kg, citalopram 10 mg/kg, NMC 10 mg/kg; for Number of mice who died: died or paralyzed after collagen-epinephrine into tail vein; for % death: died or paralyzed; for Mean % death ± S.E.M: mean of 3 experiments
Protocol: An experimental model of acute pulmonary thromboembolism was induced in mice by injecting a mixture of collagen (0.5 mg/kg) and epinephrine (0.5 mg/kg). […] The injection was followed by a massive activation of circulating platelets and the widespread formation of platelet thrombi in the microcirculation of the lungs leading to disseminated pulmonary microembolism and paralysis of the animal.

[4] = test system: [^3H]noradrenaline uptake into rat brain synaptosomes; experiment: [^3H]noradrenaline uptake by rat brain synaptosomes; format: biochemical; settings: for inhibition of [^3H]noradrenaline uptake: at 8.5 nM
Protocol: (§1) [^3H]dopamine and [^3H]noradrenaline uptake assays were carried out in synaptosomes from rat brain cortex. After a 10 minutes pre-incubation period at 37° C., [^3H]dopamine or [^3H]noradrenaline were added to the tubes containing synaptosomes and tested drugs. The reactions were stopped after four minutes by rapid cooling on ice. Specific uptake was defined as the difference between total uptake at 37° C. (triplicate samples) and the uptake measured at 0° C. (duplicate samples). Three separate experiments were performed.

[5] = test system: [^3H]dopamine uptake into rat brain synaptosomes; experiment: [^3H]dopamine uptake by rat brain synaptosomes; format: biochemical; settings: for inhibition of [^3H]dopamine uptake: at 45 nM
Protocol: as §1

[6] = Experiment No. 1, 70 mg/kg for two weeks
[7] = Experiment No. 2, 70 mg/kg for two weeks
[8] = Experiment No. 3, 70 mg/kg for two weeks
[9] = 3 mm tail amputation, Experiment No. 3, CJ57/black, 2 mg/kg p.o., two weeks
[10] = 3 mm tail amputation, Experiment No. 5, ICR, 10 mg/kg i.p., two weeks
[11] = Experiment No. 1, 10 mg/kg for two weeks
[12] = Experiment No. 2, 10 mg/kg for two weeks
[13] = Experiment No. 3, 10 mg/kg for two weeks
[14] = 10 mg/kg for two weeks (control 72 ± 2)

| SMILES | Mean (n = 4) of mean bleeding time (mice [1]; 3 mm tail amputation) | reduction of MI risk [2] | death or paralysis after collagen-epinephrine injection versus control group (mice [3]) | inhibition of [^3H]noradrenaline uptake [4] | Mean bleeding time (mice [1]; [9]) | Mean bleeding time (mice [1]; [10]) | inhibition of [^3H]dopamine uptake [5] | Number of mice who died (mice [3]; [11]) | Number of mice who died (mice [3]; [12]) | Number of mice who died (mice [3]; [13]) | % death (mice [3]; [11]) | % death (mice [3]; [12]) | % death (mice [3]; [13]) | Mean % death ± S.E.M (mice [3]; [14]) | also measured |
| --- | --- | --- | --- | --- | --- | --- | --- | --- | --- | --- | --- | --- | --- | --- | --- |
| CC(=O)Oc1ccccc1C(=O)O [Aspirin] | 288 s | 20% | significantly less prone to die or to be paralyzed |  |  |  |  |  |  |  |  |  |  |  | Mean bleeding time (mice [1]; 3 mm tail amputation, Experiment No. 2, CJ57/black, 40 mg/kg p.o., two weeks): 389 s; Mean bleeding time (mice [1]; 3 mm tail amputation, Experiment No. 3, CJ57/black, 40 mg/kg p.o., two weeks): 230 s; Mean bleeding time (mice [1]; 3 mm tail amputation, Experiment No. 4, CJ57/black, 70 mg/kg p.o., two weeks): 394 s; Mean bleeding time (mice [1]; 3 mm tail amputation, Experiment No. 5, ICR, 70 mg/kg p.o., two weeks): 145 s; Mean bleeding time (mice [1]; 4 mm tail amputation, Experiment No. 6, ICR, 40 mg/kg p.o.): 221 s; Mean bleeding time (mice [1]; amputation where tail diameter is 2 mm, Experiment No. 1, CJ57/black, 40 mg/kg p.o.): 233 s; Number of mice who died (mice [3]; [6]): 5/10; Number of mice who died (mice [3]; [7]): 5/12; Number of mice who died (mice [3]; [8]): 3/11; % death (mice [3]; [6]): 50%; % death (mice [3]; [7]): 42%; % death (mice [3]; [8]): 27%; Mean % death ± S.E.M (mice [3]; 70 mg/kg for two weeks (control 72 ± 2)): 40^a ± 7^ % |
| COC(=O)[C@H](c1ccccc1Cl)N1CCc2sccc2C1 [clopidogrel] |  | 10% |  |  |  |  |  |  |  |  |  |  |  |  |  |
| CN(C)CCCC1(c2ccc(F)cc2)OCc2cc(C#N)ccc21 (stereo not shown) [Citalopram, 1-(3-Dimethylamino-propyl)-1-(4-fluoro-phenyl)-1,3-dihydro-isobenzofuran-5-carbonitrile] | 171 s |  | did not cause a significant improvement | did not have any effect | 179 s | 66 s | did not inhibit | 7/9 | 8/13 | 7/10 | 78% | 61% | 70% | 70 ± 5% | Mice behavior following injections, day 1 (ICR mice; 30 mg/day i.p., ICR mice, observed 1 hour): normal; Mice behavior following injections, day 3 (ICR mice; 100 mg/day i.p., ICR mice, observed 1 hour): looks weak |
| OC1(c2ccc(Cl)cc2)c2ccccc2C2=NCCN21 (stereo not shown) [mazindol] |  |  |  |  |  |  |  |  |  |  |  |  |  |  | IC50 ([4]; rat brain synaptosomes, read-out: concentration inhibiting [^3H]noradrenaline uptake by 50%): 8.5 nM; IC50 ([5]; rat brain synaptosomes, read-out: concentration inhibiting [^3H]dopamine uptake by 50%): 45 nM |
| C[N+](C)(C)CCCC1(c2ccc(F)cc2)OCc2cc(C#N)ccc21 (stereo not shown) [NMC, N-methyl-citalopram] | 191 s |  | significant decrease in death or paralysis | less than 20% | 150 s | 124 s | less than 10% | 6/8 | 4/13 | 6/14 | 75% | 31% | 43% | 50^b ± 10% | dose at which not lethal to mice (ICR mice; i.p., mice): less than 50 mg/kg; Mice behavior following injections, day 1 (ICR mice; mouse, in vivo, ip): normal; Mice behavior following injections, day 2 (ICR mice; mouse, in vivo, ip): normal; Mice behavior following injections, day 3 (ICR mice; mouse, in vivo, ip): normal; doses that can be toxic (ICR mice; mouse, in vivo, ip): above 50 mg/kg |
